ChEMBL document CHEMBL5346896, “Development of indolealkylamine derivatives as potential multi-target agents for COVID-19 treatment” (Eur J Med Chem, 2023)

Tested on: SARS-CoV-2
Experiment: Antiviral activity against SARS-CoV-2 spike pseudotyped lentivirus infected in HEK293 cells expressing human ACE2 assessed as inhibition of viral entry into cells at highest concentration preincubated with cell for 1 hrs followed by viral infection for 1 hrs and further replaced with fresh medium and measured 48 hrs post transduction by luminescence based luciferase reporter assay relative to …
Type: functional, Severe acute respiratory syndrome coronavirus 2, HEK293T
Conditions: time 2 hrs

COC(=O)NCCc1c(C(O)c2ccccc2)[nH]c2ccc(OC)cc12 (configuration not stated)
inhibition (INH): 70%

COc1ccc2[nH]c(C(O)c3ccc(Cl)cc3)c(CCNC(C)=O)c2c1 (configuration not stated)
inhibition (INH): 70%
